Values of other authors, collected in PMC8198792, “Prediction of Anticancer Peptides with High Efficacy and Low Toxicity by Hybrid Model Based on 3D Structure of Peptides” (International Journal of Molecular Sciences, 2021).

test system: erythrocytes; conditions: Hemolytic peptides dataset HD2; label 1 = hemolytic, 0 = non-hemolytic; ref Hemolytik/SATPdb; cited from earlier work
From the text: Supplement ijms-22-05630-s001.zip/Hemloytic Peptides(seguence).xlsx, sheet "HD1" | column: Activity || Supplement ijms-22-05630-s001.zip/Hemloytic Peptides(seguence).xlsx, sheet "HD2" | column: Activity || Supplement ijms-22-05630-s001.zip/Hemloytic Peptides(seguence).xlsx, sheet "HD3" | column: Activity

| Substance | Activity |
| --- | --- |
| VKLKVyPLKVKlyP [satpdb11392] | 1 |
| kWkSFLkTFkSLKkTVLHTLLkAISS [satpdb10734] | 1 |
| GIIKKI [satpdb22209] | 0 |
| ILGKLLSTAAkLLSNL [satpdb12605] | 1 |
| KLLLK [compound 3825] | 1 |
| WLKKW [satpdb27168] | 0 |
| KWKFKKIPKFLHLAKKF [satpdb23702] | 0 |
| KWKSFLKTFKSlKKTVLHTlLKAISS [satpdb12638] | 1 |
| fPOVO [satpdb21927] | 0 |

same assay, conditions: cited from earlier work

| Substance | Activity | Activity (dataset HD1, hemolytic 1 / non-hemolytic 0) |
| --- | --- | --- |
| SWSSFFKKAAHSGKHVGKSASTHYL [satpdb15741] | 0 | – |
| KLLLKLLKLLLKLLLKLLK [compound 3687] | 1 | – |
| QRSVSNAATRVSRTGRSRWRDVSRNFMRR [satpdb24123] | 0 | 0 |
| KKKKKKAAFAAFAAFAA [satpdb24627] | 0 | – |
| FLSLIPHAINAVSAIAKHF [satpdb17651] | 0 | – |
| KKFLHSAKKWLKAFVKLKKNW [satpdb15438] | 1 | 1 |
| KRFKQDGGWSHWSPWSS [satpdb23837] | 0 | 0 |
| RRRAAFAAWAAFAARRR [satpdb23563] | 0 | – |
| GRRRRSVQWCA [satpdb24172] | 0 | 0 |
| FKCRRWQWRWKKLGAKPVPIIYCNRRTGKCQRM [satpdb24174] | 0 | 0 |
| KWKLFKKIKFLHSAKKF [satpdb22653] | 0 | – |
| VRRFPFFFPFLRR [satpdb22709] | 0 | 0 |
| GFKLKGKAKISCLPNGQWSNFPPKCIRECAMVSS [satpdb25464] | 0 | 0 |
| GSKKPVPIIYANRRTGKAQRM [satpdb20538] | 0 | 0 |
| GWKSVFRKAKKVGKTVGGLALDHYL [satpdb12845] | 1 | – |
| GLWSTIKNVGKEAAIAAGKAALGAL [satpdb11818] | 0 | – |
| QKAVLDCLKAAGSSLSKAAITAI [satpdb19403] | 0 | 0 |
| KKAFAAAAAFAAWAAFAKKKK [satpdb16931] | 0 | – |
| GFLGPLLKLGLKGVAKVIPHLIPSRQQ [satpdb16038] | 1 | 1 |
| GFMDTAKNVAKNVAVTLLDNLKCKITKAC [satpdb14159] | 1 | 1 |
| KKKKKKALFALWLAFAA [compound 1153] | 1 | – |
| WNPFKELERAGQRVRDAIISAAP [satpdb17819] | 0 | 0 |
| GGLRSLGRKILRAWKKYGPIIVPIIRIG [satpdb22390] | 0 | 0 |
| KKKKKKALFALWLAFLA [compound 1155] | 1 | – |
| KWLKKWL [satpdb27612] | 0 | – |
| WYSEMKRNVQRLERAIEE [satpdb11990] | 1 | – |
| KKKKKKAAFALWLAFLA [compound 1154] | 1 | – |

| Substance | Activity | Activity (dataset HD1, hemolytic 1 / non-hemolytic 0) |
| --- | --- | --- |
| KRLFRRLLFSMKKY [satpdb20261] | 0 | 0 |
| SFFKKAAHVGKHVGKAALTHYL [satpdb17678] | 0 | – |
| SFHVFPPWMCKSLKKC [satpdb22093] | 0 | 0 |
| GLWSKIKTAGKSVAKAAAKAAVKAVTNAV [satpdb14676] | 1 | 1 |
| KWKLFKKIPHLAKKF [satpdb28955] | 0 | – |
| MAFKKLEKVGRNIRDGIIKAGPAVAVIGQATSIARPTGK [satpdb16695] | 0 | 0 |
| GWGSFFKKAAHVGKHVGKA [satpdb20663] | 0 | – |
| KWKLFKKIPLAKKF [satpdb27289] | 0 | – |
| KWKLFKKIPKFLHSAKKF [satpdb25981] | 0 | – |
| KWKSFLKTFKSAKKKVLHTALKAISS [satpdb11775] | 1 | – |
| KKLKKLLKKWKKLLKKLK [satpdb24868] | 0 | 0 |
| PKLKTFLSKWIG [satpdb28564] | 0 | 0 |
| KPLLKKLLKKL [satpdb28330] | 0 | – |
| GSKKPVPIIYCNRRAATGKCQRM [satpdb20782] | 0 | 0 |
| KKKKKKKKKKGIGKFLHSAKKFGKAFVGEIMNS [satpdb13667] | 0 | 0 |
| DSHEKRHHGYKRKFHEKHHSHRGY [satpdb14665] | 0 | 0 |
| LLLKLLKLLLKLLLKLLK [compound 3688] | 1 | – |
| KIAEKFSGTRRG [satpdb24068] | 0 | 0 |
| FLSLIPHAINAVSAIAKHN [satpdb11891] | 1 | – |
| KKKKKKAAWAAWAAWAA [satpdb17717] | 0 | – |
| KAACAAKCLWR [satpdb24099] | 0 | – |
| ILPLKLPWLPLRR [satpdb11800] | 0 | – |
| VIPFVASVAAEMMHHVYCAASKRC [satpdb16460] | 1 | 1 |
| SFPFFPPGICKRLKRC [satpdb23345] | 0 | 0 |
| LKLFKKILKYL [satpdb12465] | 1 | – |
| ILGKLLSTAWGLLSNL [satpdb11718] | 1 | – |
| KKKKKKLLFAAWAAFAA [compound 1152] | 1 | – |

| Substance | Activity | Activity (dataset HD1, hemolytic 1 / non-hemolytic 0) |
| --- | --- | --- |
| KWKKLPKKLLKLL [satpdb21914] | 0 | – |
| KWKKLLKKPLKLKL [satpdb22005] | 0 | – |
| KKKKKKAAFALWLAFAA [compound 1148] | 1 | – |
| KKKKKKAAFALWAAFAA [compound 1147] | 1 | – |
| QADFQKVVAGVANALAHRYH [satpdb25830] | 0 | 0 |
| ENAEEDIVLMENLFCSYIVGSADSFWT [satpdb18741] | 0 | 0 |
| PKLLKFLSKWIG [satpdb11566] | 1 | 1 |
| RGLRRLGRKIAHGVKKYGPTVKRIKRKA [satpdb15155] | 0 | – |
| KAVAAKKSPKKAKKPAT [satpdb19355] | 0 | 0 |
| HYRIKPTFRRLKWKYKGKFW [satpdb11796] | 1 | 1 |
| ILPWKLPLLPLRR [satpdb15320] | 0 | – |
| ALWKTLLKKVLKA [satpdb11740] | 1 | – |
| HALWMTLLKKVLKAAAKAALNAVLVGANA [satpdb12263] | 1 | 1 |
| KKKKKKAAFLAWALFAA [compound 1149] | 1 | – |
| KLLKLLLKLLKLLLKLLLKLLK [compound 3828] | 1 | – |
| ALLHHGLNCAKGVLAALLHHGLNCAKGVLA [satpdb21285] | 0 | 0 |
| KKLLPIVANLLKSLL [satpdb19176] | 0 | 0 |
| IPHAVKAISDLI [satpdb15419] | 0 | – |
| FLGPIIKIATGILPTAICKILKKC [satpdb24144] | 0 | 0 |
| FLPLVLGALSGILPKILGK [satpdb12081] | 1 | 1 |
| PKLLKTFLKWIG [satpdb11234] | 1 | 1 |
| GWANTLKNVAGGLCKITGAA [satpdb14607] | 1 | 1 |
| FKTWKRPPFQTSCSGIIKE [satpdb21275] | 0 | 0 |
| GRDYRTSLTIVQKLKKMVD [satpdb22468] | 0 | 0 |
| WKKIPKFLHLAKKF [satpdb14752] | 0 | – |
| FLPLIGRVLSGIL [satpdb12693] | 1 | – |

same assay, conditions: hemolytic peptides dataset HD3; 1 = hemolytic (positive set), 0 = non-hemolytic (negative set); labels taken from databases; ref Hemolytik/SATPdb; cited from earlier work

| Substance | Activity |
| --- | --- |
| VKLKVyPLKVKlyP [satpdb11392] | 1 |
| kWkSFLkTFkSLKkTVLHTLLkAISS [satpdb10734] | 1 |
| GIIKKI [satpdb22209] | 0 |
| ILGKLLSTAAkLLSNL [satpdb12605] | 1 |
| CGESCVFIPCVTALLGCSCKSKVCYKNSIP [satpdb12547] | 1 |
| GCRFCCNCCPNMSGCGVCCRF [satpdb21740] | 0 |
| GTPCGESCVYIPCISGVIGCSCTDKVCYLN [satpdb10399] | 1 |
| KLLLK [compound 3825] | 1 |
| WLKKW [satpdb27168] | 0 |
| KWKFKKIPKFLHLAKKF [satpdb23702] | 0 |
| RWKIFKKIEKVGRNVRDGIIKAGPAVAVVGQAATVVKG [satpdb26767] | 0 |
| KWKSFLKTLKSPVKTVFYTALKPISS [satpdb14675] | 1 |
| KWKSFLKTFKSlKKTVLHTlLKAISS [satpdb12638] | 1 |
| FIFPKKNIINSLFGR [satpdb24412] | 0 |
| FSPQMLQDIIEAATAIL [satpdb19301] | 0 |
| fPOVO [satpdb21927] | 0 |

same assay, conditions: natural hemolytic peptide dataset HD1, label collected from databases; ref Hemolytik [49], SATPdb [34]; cited from earlier work

| Substance | Activity (dataset HD1, hemolytic 1 / non-hemolytic 0) |
| --- | --- |
| CGESCVFIPCVTALLGCSCKSKVCYKNSIP [satpdb12547] | 1 |
| GCRFCCNCCPNMSGCGVCCRF [satpdb21740] | 0 |
| GTPCGESCVYIPCISGVIGCSCTDKVCYLN [satpdb10399] | 1 |
| RWKIFKKIEKVGRNVRDGIIKAGPAVAVVGQAATVVKG [satpdb26767] | 0 |
| KWKSFLKTLKSPVKTVFYTALKPISS [satpdb14675] | 1 |
| FIFPKKNIINSLFGR [satpdb24412] | 0 |
| FSPQMLQDIIEAATAIL [satpdb19301] | 0 |
